The data set in a line: photoluminescence quantum yield (fraction); solvent given as SMILES.

Several values for one entry are separate records, joined by “and”; a condition that tells them apart may be missing. Equal entries are not always repeated.

As to `C[N+]1=C(/C=C/C2=C3Oc4c(cc5c6c4CCCN6CCC5)C(c4ccccc4C(=O)O)=C3CCC2)C(C)(C)c2ccccc21`, the photoluminescence quantum yield is, setting by setting: (in CC#N) 0.25; (in CCO) 0.34; (in CO) 0.35; (in ClC(Cl)Cl) 0.51.

For the molecule `CN(C)c1ccc(-c2cc(=O)c3ccccc3o2)cc1`, the photoluminescence quantum yield is, setting by setting: (in C1CCCCC1) 0.007; (in C1CCOC1) 1; (in CC#N) 1 and 0.96; (in CCOC(C)=O) 1; (in CCOCC) 0.87; (in CO) 0.095. For the same molecule, the photoluminescence quantum yield (in Cc1ccccc1) came to 0.76.

For `CN(C)c1ccc(/C=C/C=C/c2ccc(C#N)cc2)cc1`, the photoluminescence quantum yield by setting is: (in C1CCOC1) 0.098; (in CC#N) 0.223; (in CCCC#N) 0.125; (in CCCCCC) 0.059; (in CCCCOCCCC) 0.068; (in CCO) 0.187. The molecule also returned a photoluminescence quantum yield (in CCOCC) of 0.085.

Turning to `Cc1ccc2cc(C)ccc2c1`, under “in C1CCCCC1”, the photoluminescence quantum yield came to 0.59.

In the case of `COc1nc(Cl)nc(Nc2ccc3c4c(cccc24)C(=O)c2ccccc2-3)n1`, the photoluminescence quantum yield (in CC#N) is 0.52; the photoluminescence quantum yield (in CC(C)=O) was 0.54; the photoluminescence quantum yield (in CC(C)O) is 0.5; the photoluminescence quantum yield (in CCCCOCCCC) was found to be 0.05; the photoluminescence quantum yield (in CCOC(C)=O) was 0.34; the photoluminescence quantum yield (in CCOCC) amounted to 0.12. Further, the photoluminescence quantum yield is, setting by setting: (in CO) 0.33; (in Cc1ccccc1) 0.27; (in Clc1ccccc1) 0.5; (in N#Cc1ccccc1) 0.58; (in O=C1CCCCC1) 0.51.

Consider `Cc1ccc(C)n1-c1ccc(N(C)C)cc1`, for which the photoluminescence quantum yield came out at 0.27 (in CC#N) and 0.11 (in CCCCCC).

Turning to `Cc1c(C(=O)c2ccccc2)c2ccc3cccc4c5cccc6ccc1c(c65)c2c34`, the photoluminescence quantum yield (in ClCCl) was determined as 0.02.

For `CC1=[N+]2C(=C(c3ccccc3)c3c4c(c(C)n3[B-]2(F)F)CCc2ccccc2-4)C2=C1CCc1ccccc12`, the photoluminescence quantum yield (in CC#N) amounted to 0.1.

Consider `CCOC(=O)/N=c1/oc2cc(OC)ccc2cc1C#N`, for which the photoluminescence quantum yield (in ClCCl) came out at 0.0065.

`C[n+]1cc2ccc3c[n+](C)c4ccccc4c3c2c2ccccc21` came in with a photoluminescence quantum yield (in CC#N) of 0.066.

Under “in ClCCl”, `COC(=O)C1=C(C(=O)OC)C2(c3ccccc3-c3ccccc32)[C@@H](c2ccc([N+](=O)[O-])cc2)C=C2c3cc(OC)c(OC)cc3CCN21` showed a photoluminescence quantum yield of 0.00065.

With `CCn1ncc2c3c(C#N)c4c5ccccc5n(C)c4nc3ccc21`, the photoluminescence quantum yield (in CCOC(C)=O) came to 0.56.

Turning to `Cc1cc(C#N)ccc1N1c2ccccc2C(c2ccccc2)(c2ccccc2)c2ccccc21`, the photoluminescence quantum yield (in Cc1ccccc1) is 0.12.

Consider `O=c1oc2ccc3ccccc3c2nc1-c1ccccc1`, for which the photoluminescence quantum yield came to 0.56 (in CC#N), 0.12 (in CCCCCC), 0.5 (in CO) and 0.46 (in c1ccccc1).

Under “in ClC(Cl)Cl”, `Cc1c2c(c(C)c3ccccc13)C1=C2C=CC2Nc3ccccc3NC12` (stereo not drawn) displayed a photoluminescence quantum yield of 0.74.

Turning to `O=C1c2ccccc2-c2nc3c(F)c(F)c(F)c(F)c3n21`, the photoluminescence quantum yield (in ClCCl) stood at 0.22.

Consider `Cc1cc(C(F)(F)F)nc2c1ccc1nc(-c3ccc(F)c(F)c3)cn12`, for which the photoluminescence quantum yield is 0.84 (in CC#N), 0.78 (in CCCCOC(C)=O), 0.83 (in CO) and 0.96 (in ClC(Cl)Cl).

For `CC(=O)Nc1cc2ccc3cccc4ccc(c1)c2c34`, the photoluminescence quantum yield was found to be 0.09 (in CC#N), 0.1 (in CCCCOCCCC) and 0.07 (in CO).

For `N#CC1=c2cc3c4c(c2Oc2c1cc1c5c2CCCN5CCC1)CCC[N+]=4CCC3`, the photoluminescence quantum yield (in CCO) came out at 0.25.

As to `CC1=CC2=Nc3nc(C)[n+](C)cc3CN2C=C1`, the photoluminescence quantum yield runs as follows: (in CC#N) 0.85; (in CCO) 0.86; (in O) 0.79.

For the setting “in ClCCl”, `CCCCCCCCOc1ccc(C#Cc2ccc3c(c2)c2ccccc2n3CCCCCCCC)c(OCCCCCCCC)c1` displayed a photoluminescence quantum yield of 0.33.

The molecule `c1ccc(-c2nc(-c3ccccc3)nc(-n3c4ccccc4c4cc(-n5c6ccccc6c6ccccc65)cc(-n5c6ccccc6c6ccccc65)c43)n2)cc1` yielded a photoluminescence quantum yield (in O=P(c1ccccc1)(c1ccccc1)c1ccccc1Oc1ccccc1P(=O)(c1ccccc1)c1ccccc1) of 0.85.

Turning to `C=CCNc1ccc2ccc3oc4cc(=O)ccc-4nc3c2c1`, the photoluminescence quantum yield came out at 0.03 (in CC#N), 0.04 (in CCO), 0.06 (in ClCCl) and 0.007 (in O).

On to `C1CCN2CCCn3c2c(c2c3=NCCN=2)C1`, for which the photoluminescence quantum yield runs as follows: (in CCCCCC) 0.36; (in CS(C)=O) 0.2.

For `CN(C)c1ccc2c(c1)C(=O)c1ccccc1-2`, the photoluminescence quantum yield came to 0.0087 (in C1CCCCC1) and 0.0012 (in c1ccccc1).

Take `COc1ccc(C2=C3C(/C=C/c4cc(OC)c(OC)c(OC)c4)=C(C=O)C(C)=[N+]3[B-](F)(F)n3c(/C=C/c4cc(OC)c(OC)c(OC)c4)c(C=O)c(C=Cc4cc(OC)c(OC)c(OC)c4)c32)cc1`: the photoluminescence quantum yield (in ClCCl) is 0.1.

For `CCC1=C(C)C(=O)n2c1cc1c(CCC(=O)O)c(C)c(C)n1c2=O`, the photoluminescence quantum yield was 0.95 (in CO), 1 (in CS(C)=O), 1 (in ClC(Cl)Cl) and 0.84 (in c1ccccc1).

As to `CCCCCCCCC1(CCCCCCCC)c2ccccc2-c2ccc(-c3nnc(-c4cccc(-n5c6ccc(C(C)(C)C)cc6c6cc(C(C)(C)C)ccc65)c4)o3)cc21`, for the setting “in Cc1ccccc1”, the photoluminescence quantum yield is 0.13.

With `CN1/C(=C/C=C(/C=C/C2=[N+](C)c3ccccc3C2(C)C)c2ccc(C(F)(F)F)cc2)C(C)(C)c2ccccc21`, the photoluminescence quantum yield is, setting by setting: (in CCO) 0.11; (in CO) 0.09; (in CS(C)=O) 0.23.

For `F[B-]1(F)n2c(-c3ccccc3)cnc2-c2cccc[n+]21`, the photoluminescence quantum yield was 0.33 (in C1CCCCC1); 0.22 (in C1CCOC1); 0.24 (in C1COCCO1); 0.21 (in CC#N); 0.32 (in CCCCCC); 0.17 (in CO). Also, the photoluminescence quantum yield (in ClC(Cl)Cl) amounted to 0.24.

The molecule `Cc1cc(-c2nnc(-c3c(C(C)C)cc(C(C)C)cc3C(C)C)o2)ccc1-n1c2ccccc2c2ccccc21` returned a photoluminescence quantum yield (in Cc1ccccc1) of 0.38.

`CC1=CC(C)=[N+]2C1=C(c1ccc(I)cc1)c1c(C)cc(C)n1[B-]2(OCc1ccccc1)OCc1ccccc1` had a photoluminescence quantum yield (in ClC(Cl)Cl) of 0.65.

On to `CC1(C)CC(/C=C/c2ccc(-n3ccnc3)cc2)=CC(=C(C#N)C#N)C1`, for which the photoluminescence quantum yield (in CCO) was determined as 0.0001.

`c1ccc(-c2ccnc(-c3ccccc3)n2)cc1` had a photoluminescence quantum yield (in ClC(Cl)Cl) of 0.51.

`CN(C)c1ccc(/C=C2\CC/C(=C\c3ccc(N(C)C)cc3)C2=O)cc1`: the photoluminescence quantum yield (in C1CCOC1) is 0.089; the photoluminescence quantum yield (in C1COCCO1) turned out to be 0.08; the photoluminescence quantum yield (in CC#N) was found to be 0.11; the photoluminescence quantum yield (in CC(C)=O) was 0.15; the photoluminescence quantum yield (in CC(C)O) came out at 0.18; the photoluminescence quantum yield (in CCO) is 0.11. The photoluminescence quantum yield by setting is: (in CCOC(C)=O) 0.09; (in CN(C)C=O) 0.19; (in CO) 0.025; (in CS(C)=O) 0.2; (in Cc1ccccc1) 0.08; (in ClC(Cl)(Cl)Cl) 0.043. Also, the photoluminescence quantum yield turned out to be 0.13 (in ClC(Cl)Cl), 0.16 (in ClCCl) and 0.1 (in S=C=S).

For the molecule `CCCCOc1ccc(/C=C/C=C/C=C/c2ccc([N+](=O)[O-])cc2)cc1`, the photoluminescence quantum yield is, setting by setting: (in CC1CCCCC1) 0.25; (in CC#N) 0.014; (in Cc1ccccc1) 0.53; (in ClCCl) 0.06.

In the case of `CC(C)(C)c1ccc(C2=CC3=C(c4ccccc4)c4cc(-c5ccc(C(C)(C)C)cc5)c(-c5ccc(C(C)(C)C)cc5)n4[B-](F)(F)[N+]3=C2c2ccc(C(C)(C)C)cc2)cc1`, the photoluminescence quantum yield (in C1CCCCC1) stood at 0.33; the photoluminescence quantum yield (in C1CCOC1) came out at 0.28; the photoluminescence quantum yield (in CC#N) came out at 0.29; the photoluminescence quantum yield (in Cc1ccccc1) is 0.43; the photoluminescence quantum yield (in ClCCl) came out at 0.3.

With `CC(C)(C)N1C(=O)c2c(cc3ccc4cccc5ccc2c3c45)C1O` (stereo not drawn), where the note is “in ClC(Cl)Cl”, the photoluminescence quantum yield was 0.14 and 0.143.

Regarding `CC(=O)c1nc(-c2ccc(N(c3ccccc3)c3ccccc3)cc2)oc1C`, the photoluminescence quantum yield by setting is: (in CC#N) 0.486; (in CCO) 0.264; (in CCOC(C)=O) 0.659; (in CCOCC) 0.886; (in ClCCl) 0.972.

`CC1(C)c2ccccc2N(c2ccc(-c3ncccn3)cc2)c2ccccc21` showed a photoluminescence quantum yield (in O=P(c1ccccc1)(c1ccccc1)c1ccc2oc3ccc(P(=O)(c4ccccc4)c4ccccc4)cc3c2c1) of 0.83.

`Cc1cc2cc3cc(C)c(C)cc3cc2cn1`: where the note is “in CCO”, the photoluminescence quantum yield was 0.44.

In the case of `CCCCCCN(c1ccccc1)c1ccc(/C=C/c2cc(=O)oc3cc(C)ccc23)cc1`, the photoluminescence quantum yield (in ClC(Cl)Cl) stood at 0.05.

Where the note is “in ClCCl”, `C(#Cc1ccc(-n2c3ccccc3c3ccccc32)cc1)c1ccccc1` registered a photoluminescence quantum yield of 0.72.

Regarding `O=c1cc2c(-c3c(O)c4cccc5ccc6oc(=O)cc3c6c54)c(O)c3cccc4ccc(o1)c2c43`, the photoluminescence quantum yield (in CC1CCCO1) is 0.13.

As for `CC[Si](C)(C)c1cc2ccc3cccc4ccc(c1C(=O)NC(C)(C)C)c2c34`, the photoluminescence quantum yield (in ClC(Cl)Cl) came out at 0.156.

`c1ccc(-p2c(-c3cccs3)cc3ccccc32)cc1` (stereo not drawn) returned a photoluminescence quantum yield (in C1CCOC1) of 0.07.

The record behind these values is the Deep4Chem optical property database.
